Laboratory results as given in the supplement of paper PMC10307832.

What was measured:
Experiment in all cases: relative viability (nuclei count vs DMSO), 5 days (fraction); higher = more cells survive
[1] = compound: Cn1cc(-c2cnn3c(N)c(Br)c([C@@H]4CCCNC4)nc23)cn1 + CCNC(=O)c1noc(-c2cc(C(C)C)c(O)cc2O)c1-c1ccc(CN2CCOCC2)cc1 [Luminespib] (partner 0.01 µM)
Summary of the method: (§1)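 Dosing by pin tool came one day after lung cancer cell lines were seeded in 1536-well plates, using either one drug or a fixed anchor-drug dose plus five library-drug doses (not always all listed) in √10 steps. After 5 days, nuclei were counted on 4× images. Relative viability is treated-well nuclei count divided by vehicle-well nuclei count, and values are medians of duplicate plates.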

[2] = compound: Cn1cc(-c2cnn3c(N)c(Br)c([C@@H]4CCCNC4)nc23)cn1 + CC(C)C[C@H](NC(=O)[C@H](Cc1ccccc1)NC(=O)c1cnccn1)B(O)O [Bortezomib] (partner 0.002 µM)
Summary of the method: as §1

[3] = compound: Cn1cc(-c2cnn3c(N)c(Br)c([C@@H]4CCCNC4)nc23)cn1 + Cc1nc(Nc2ncc(C(=O)Nc3c(C)cccc3Cl)s2)cc(N2CCN(CCO)CC2)n1 [Dasatinib] (partner 0.075 µM)
Summary of the method: as §1

[4] = compound: Cn1cc(-c2cnn3c(N)c(Br)c([C@@H]4CCCNC4)nc23)cn1 + CC(=O)c1c(C)c2cnc(Nc3ccc(N4CCNCC4)cn3)nc2n(C2CCCC2)c1=O [Palbociclib] (partner 0.5 µM)
Summary of the method: as §1

Cell Line | relative viability ([1]; first compound 0.05 µM) | relative viability ([1]; first compound 0.1581 µM) | relative viability ([1]; first compound 0.5 µM) | relative viability ([1]; first compound 1.581 µM) | relative viability ([1]; first compound 5 µM) | relative viability ([2]; first compound 0.05 µM) | relative viability ([2]; first compound 0.1581 µM) | relative viability ([2]; first compound 0.5 µM) | relative viability ([2]; first compound 1.581 µM) | relative viability ([2]; first compound 5 µM) | relative viability ([3]; first compound 0.05 µM) | relative viability ([3]; first compound 0.1581 µM) | relative viability ([3]; first compound 0.5 µM) | relative viability ([3]; first compound 1.581 µM) | relative viability ([3]; first compound 5 µM) | relative viability ([4]; first compound 0.05 µM) | relative viability ([4]; first compound 0.1581 µM) | relative viability ([4]; first compound 0.5 µM) | relative viability ([4]; first compound 1.581 µM) | relative viability ([4]; first compound 5 µM)
HOP-62 | 0.872 | 0.915 | 0.933 | 0.829 | 0.739 | 0.847 | 1.02 | 1.28 | 0.708 | 0.294 | 0.66 | 0.702 | 0.568 | 0.589 | 0.316 | 0.438 | 0.5 | 0.485 | 0.417 | 0.334
NCI-H1915 | 0.987 | 0.86 | 0.722 | 0.667 | 0.695 | 1.14 | 1.01 | 1.06 | 0.784 | 1.03 | 0.307 | 0.351 | 0.355 | 0.347 | 0.283 | 0.591 | 0.562 | 0.522 | 0.508 | 0.543
NCI-H3122 | 0.0947 | 0.0737 | 0.0857 | 0.0666 | 0.12 | 1.12 | 1.02 | 1.04 | 1.11 | 1.05 | 0.905 | 0.833 | 0.614 | 0.84 | 0.64 | 0.169 | 0.164 | 0.227 | 0.182 | 0.163
NCI-H1651 | 0.721 | 0.767 | 0.848 | 0.327 | 0.195 | 0.914 | 0.954 | 0.89 | 0.898 | 0.56 | 0.348 | 0.447 | 0.551 | 0.224 | 0.149 | 0.556 | 0.564 | 0.536 | 0.502 | 0.424
NCI-H838 | 0.346 | 0.252 | 0.261 | 0.225 | 0.222 | 0.918 | 0.845 | 0.83 | 0.701 | 0.551 | 0.196 | 0.298 | 0.277 | 0.284 | 0.254 | 0.238 | 0.228 | 0.211 | 0.178 | 0.224
SK-LU-1 | 0.184 | 0.207 | 0.233 | 0.186 | 0.165 | 1.08 |  | 0.866 | 0.486 | 0.202 | 0.173 | 0.132 | 0.148 | 0.164 | 0.118 | 0.388 | 0.308 | 0.366 | 0.323 | 0.225
NCI-H441 | 0.373 | 0.348 | 0.31 | 0.254 | 0.302 | 1.05 | 0.585 | 0.87 |  | 0.448 | 0.589 | 0.736 | 0.476 | 0.487 | 0.601 | 0.191 | 0.189 | 0.199 | 0.172 | 0.193
NCI-H650 | 0.807 | 0.872 | 0.749 | 0.811 | 0.345 | 0.717 | 0.748 | 0.69 | 0.773 | 0.603 | 0.439 | 0.409 | 0.451 | 0.474 | 0.422 | 0.372 | 0.357 | 0.36 | 0.313 | 0.324
NCI-H1792 | 0.488 | 0.616 | 0.439 | 0.79 | 0.317 | 0.801 | 1.1 | 0.703 | 0.551 | 0.371 |  | 0.852 | 0.624 | 0.933 | 0.425 |  | 0.777 | 0.663 | 0.668 | 0.617
